Reference: paper PMC7457602 (bioRxiv, 2020)

Biological target: SARS-CoV-2 3CLpro (Severe acute respiratory syndrome coronavirus 2, UniProt P0DTD1)

O=c1c2ccccc2[se]n1-c1ccccc1 [Ebselen]
activity in the transfection-based assay (rescue of 3CLpro induced cytotoxicity): did not observe activity
